Results on 31 molecules are retold here after patent US20080114005A1, “Fibrate Compounds Having Ppar Agonist Activity” (Dr. Reddy's Laboratories Limited, priority 2004, published 2008).

As usually defined, the melting point is the temperature of the solid-liquid transition. As to `CCCc1nn(C)c2c(=O)n(CCCOc3ccc(SC(C)(C)C(=O)O)cc3)c(CC)nc12` [Example 40, 2-{4-[3-(5-Ethyl-1-methyl-7-oxo-3-propyl-1,7-dihydro-pyrazolo[4,3-d]pyrimidin-6-yl)-propoxy]-phenylsulfanyl}-2-methyl-propionic acid], the melting point is 115 to 117 °C.
To `CCCc1nc2ccccc2c(=O)n1CCNc1ccc(SC(C)(C)C(=O)O)cc1` [Example 6, 2-Methyl-2-{4-[2-(4-oxo-2-propyl-4H-quinazolin-3-yl)-ethylamino]-phenylsulfanyl}-propionic acid] belongs 162 to 164 °C.
The molecule `CCCc1nn(C)c2c(=O)n(CCOc3ccc(OC(C)(C)C(=O)OCC)cc3)c(CC)nc12` [Example 69, 2-{4-[2-(5-Ethyl-1-methyl-7-oxo-3-propyl-1,7-dihydro-pyrazolo[4,3-d]pyrimidin-6-yl)-ethoxy]-phenoxy}-2-methyl-propionic acid ethyl ester] had a melting point of 66 to 68 °C.
The molecule `CCCc1nn(C)c2c(=O)n(CCNc3ccc(SC(C)(C)C(=O)OCC)cc3)c(CC)nc12` [Example 41, 2-{4-[2-(5-Ethyl-1-methyl-7-oxo-3-propyl-1,7-dihydro-pyrazolo[4,3-d]pyrimidin-6-yl)-ethylamino]-phenylsulfanyl}-2-methyl-propionic acid ethyl ester] gave a melting point of 105 to 107 °C.
To `CCCc1nn(CC)c2c(=O)n(CCOc3ccc(SC(C)(C)C(=O)O)cc3)c(CC)nc12` [Example 50, 2-{4-[2-(1,5-Diethyl-7-oxo-3-propyl-1,7-dihydro-pyrazolo[4,3-d]pyrimidin-6-yl)-ethoxy]-phenylsulfanyl}-2-methyl-propionic acid] belongs 123 to 125 °C; to `CCCc1nn(C)c2c(=O)n(CCCOc3ccc(OC(C)(C)C(=O)O)cc3)c(CC)nc12` [Example 74, 2-{4-[3-(5-Ethyl-1-methyl-7-oxo-3-propyl-1,7-dihydro-pyrazolo[4,3-d]pyrimidin-6-yl)-propoxy]-phenoxy}-2-methyl-propionic acid], 124 to 126 °C; to `CCCc1nn(C)c2c(=O)n(CCCOc3ccc(OC(C)(C)C(=O)O)cc3)cnc12` [Example 64, 2-Methyl-2-{4-[3-(1-methyl-7-oxo-3-propyl-1,7-dihydro-pyrazolo[4,3-d]pyrimidin-6-yl)-propoxy]-phenoxy}-propionic acid], 136 to 138 °C.
For `CCCc1nn(C)c2c(=O)n(CCCOc3ccc(SC(C)(C)C(=O)OCC)cc3)c(CC)nc12` [Example 39, 2-{4-[3-(5-Ethyl-1-methyl-7-oxo-3-propyl-1,7-dihydro-pyrazolo[4,3-d]pyrimidin-6-yl)-propoxy]-phenylsulfanyl}-2-methyl-propionic acid ethyl ester] the value was 52 to 54 °C; for `CCc1nc2ccccc2c(=O)n1CCOc1ccc(SC(C)(C)C(=O)O)cc1` [Example 34, 2-{4-[2-(2-Ethyl-4-oxo-4H-quinazolin-3-yl)-ethoxy]-phenylsulfanyl}-2-methyl-propionic acid], 148 to 150 °C.
For `CCC(C)(Sc1ccc(OCCCn2c(C)nc3ccccc3c2=O)cc1)C(=O)O` (stereo not shown) [Example 56, 2-Methyl-2-{4-[3-(2-methyl-4-oxo-4H-quinazolin-3-yl)-propoxy]-phenylsulfanyl}-butyric acid] the value was 130 to 132 °C; for `Cc1nc2ccccc2c(=O)n1CCCNc1ccc(SC(C)(C)C(=O)O)cc1` [Example 8, 2-Methyl-2-{4-[3-(2-methyl-4-oxo-4H-quinazolin-3-yl)-propylamino]-phenylsulfanyl}-propionic acid], 162 to 164 °C; for `CCCc1nn(C)c2c(=O)n(CCCNc3ccc(OC(C)(C)C(=O)O)cc3)c(CC)nc12` [Example 72, 2-{4-[3-(5-Ethyl-1-methyl-7-oxo-3-propyl-1,7-dihydro-pyrazolo[4,3-d]pyrimidin-6-yl)-propylamino]-phenoxy}-2-methyl-propionic acid], 124 to 126 °C.
`CCCc1nn(CC)c2c(=O)n(CCOc3ccc(SC(C)(CC)C(=O)O)cc3)c(C)nc12` (stereo not shown) [Example 54, 2-{4-[2-(1-Ethyl-5-methyl-7-oxo-3-propyl-1,7-dihydro-pyrazolo[4,3-d]pyrimidin-6-yl)-ethoxy]-phenylsulfanyl}-2-methyl-butyric acid] registered a melting point of 155 to 157 °C.
In turn, `CCCc1nn(C)c2c(=O)n(CCOc3ccc(OC(C)(C)C(=O)OCC)cc3)c(C)nc12` [Example 59, 2-{4-[2-(1,5-Dimethyl-7-oxo-3-propyl-1,7-dihydro-pyrazolo[4,3-d]pyrimidin-6-yl)-ethoxy]-phenoxy}-2-methyl-propionic acid ethyl ester] returned a melting point of 98 to 100 °C.
For `Cc1nc2ccccc2c(=O)n1CCOc1ccc(SC(C)(C)C(=O)O)cc1` [Example 22, 2-Methyl-2-{4-[2-(2-methyl-4-oxo-4H-quinazolin-3-yl)-ethoxy]-phenylsulfanyl}-propionic acid] the value was 188 to 190 °C; for `Cc1nc2ccccc2c(=O)n1CCNc1ccc(SC(C)(C)C(=O)O)cc1` [Example 2, 2-Methyl-2-{4-[2-(2-methyl-4-oxo-4H-quinazolin-3-yl)-ethylamino]-phenylsulfanyl}-propionic acid], 226 to 228 °C.
In turn, `CCCc1nn(C)c2c(=O)n(CCOc3ccc(OC4(C(=O)OCC)CCC4)cc3)c(C)nc12` [Example 90, 1-{4-[2-(1,5-Dimethyl-7-oxo-3-propyl-1,7-dihydro-pyrazolo[4,3-d]pyrimidin-6-yl)-ethoxy]-phenoxy}-cyclobutanecarboxylic acid ethyl ester] registered a melting point of 132 to 134 °C.
For `CCCc1nn(CC)c2c(=O)n(CCCOc3ccc(SC(C)(C)C(=O)O)cc3)c(CC)nc12` [Example 30, 2-{4-[3-(1,5-Diethyl-7-oxo-3-propyl-1,7-dihydro-pyrazolo[4,3-d]pyrimidin-6-yl)-propoxy]-phenylsulfanyl}-2-methyl-propionic acid] the value was 96 to 98 °C.
Take `CCCc1nc2ccccc2c(=O)n1CCCCNc1ccc(SC(C)(C)C(=O)O)cc1` [Example 18, 2-Methyl-2-{4-[4-(4-oxo-2-propyl-4H-quinazolin-3-yl)-butylamino]-phenylsulfanyl}-propionic acid]: the melting point fell in the range of 100 to 104 °C.
`CCCc1nn(C)c2c(=O)n(CCOc3ccc(OC(C)(C)C(=O)O)cc3)cnc12` [Example 58, 2-Methyl-2-{4-[2-(1-methyl-7-oxo-3-propyl-1,7-dihydro-pyrazolo[4,3-d]pyrimidin-6-yl)-ethoxy]-phenoxy}-propionic acid]: the melting point fell in the range of 144 to 146 °C.
For `CCOC(=O)C(C)(C)Sc1ccc(OCCCn2c(C)nc3ccccc3c2=O)cc1` [Example 25, 2-Methyl-2-{4-[3-(2-methyl-4-oxo-4H-quinazolin-3-yl)-propoxy]-phenylsulfanyl}-propionic acid ethyl ester] the value was 162 to 164 °C.
`CCCc1nn(CC)c2c(=O)n(CCOc3ccc(SC(C)(C)C(=O)OCC)cc3)c(C)nc12` [Example 51, 2-{4-[2-(1-Ethyl-5-methyl-7-oxo-3-propyl-1,7-dihydro-pyrazolo[4,3-d]pyrimidin-6-yl)-ethoxy]-phenylsulfanyl}-2-methyl-propionic acid ethyl ester] had a melting point of 85 to 87 °C.
To `CCc1nc2ccccc2c(=O)n1CCNc1ccc(SC(C)(C)C(=O)O)cc1` [Example 4, 2-{4-[2-(2-Ethyl-4-oxo-4H-quinazolin-3-yl)-ethylamino]-phenylsulfanyl}-2-methyl-propionic acid] belongs 124 to 126 °C; to `CCCc1nn(C)c2c(=O)n(CCOc3ccc(OC(C)(C)C(=O)O)cc3)c(C)nc12` [Example 60, 2-{4-[2-(1,5-Dimethyl-7-oxo-3-propyl-1,7-dihydro-pyrazolo[4,3-d]pyrimidin-6-yl)-ethoxy]-phenoxy}-2-methyl-propionic acid], 146 to 148 °C; to `CCCc1nn(CC)c2c(=O)n(CCOc3ccc(SC(C)(C)C(=O)O)cc3)c(C)nc12` [Example 52, 2-{4-[2-(1-Ethyl-5-methyl-7-oxo-3-propyl-1,7-dihydro-pyrazolo[4,3-d]pyrimidin-6-yl)-ethoxy]-phenylsulfanyl}-2-methyl-propionic acid], 178 to 180 °C.
For `CCCc1nn(C)c2c(=O)n(CCCNc3ccc(OC(C)(C)C(=O)O)cc3)c(C)nc12` [Example 68, 2-{4-[3-(1,5-Dimethyl-7-oxo-3-propyl-1,7-dihydro-pyrazolo[4,3-d]pyrimidin-6-yl)-propylamino]-phenoxy}-2-methyl-propionic acid] the value was 104 to 106 °C; for `CCc1nc2ccccc2c(=O)n1CCCOc1ccc(SC(C)(C)C(=O)O)cc1` [Example 24, 2-{4-[3-(2-Ethyl-4-oxo-4H-quinazolin-3-yl)-propoxy]-phenylsulfanyl}-2-methyl-propionic acid], 156 to 158 °C; for `Cc1nc2ccccc2c(=O)n1CCCCNc1ccc(SC(C)(C)C(=O)O)cc1` [Example 14, 2-Methyl-2-{4-[4-(2-methyl-4-oxo-4H-quinazolin-3-yl)-butylamino]-phenylsulfanyl}-propionic acid], 100 to 102 °C.
To `CCOC(=O)C(C)(CC)Sc1ccc(OCCCn2c(C)nc3ccccc3c2=O)cc1` (stereo not shown) [Example 55, 2-Methyl-2-{4-[3-(2-methyl-4-oxo-4H-quinazolin-3-yl)-propoxy]-phenylsulfanyl}-butyric acid ethyl ester] belongs 164 to 166 °C; to `CCCc1nn(C)c2c(=O)n(CCOc3ccc(SC(C)(C)C(=O)O)cc3)c(C)nc12` [Example 32, 2-{4-[2-(1,5-Dimethyl-7-oxo-3-propyl-1,7-dihydro-pyrazolo[4,3-d]pyrimidin-6-yl)-ethoxy]-phenylsulfanyl}-2-methyl-propionic acid], 182 to 184 °C; to `CCCc1nn(C)c2c(=O)n(CCNc3ccc(SC(C)(C)C(=O)O)cc3)c(CC)nc12` [Example 42, 2-{4-[2-(5-Ethyl-1-methyl-7-oxo-3-propyl-1,7-dihydro-pyrazolo[4,3-d]pyrimidin-6-yl)-ethylamino]-phenylsulfanyl}-2-methyl-propionic acid], 187 to 189 °C.
